Experimental findings from patent publication USRE40387E1, “Pharmaceutical compositions, dosage forms and methods for oral administration of epothilones” (Bristol-Myers Squibb Company, priority 2001, dated 2008) are described below.

A short description of this series: Pharmacokinetics in rats (intraarterial, oral, intraduodenal). Format: in vivo, male Sprague Dawley rats. The method, then: Plasma samples from pharmacokinetic/pharmacodynamic studies were analyzed for the concentration of Compound (A) using an LC/MS/MS (liquid chromatography/mass spectrometry/mass spectrometry) assay with a standard curve range of 5 to 20,000 ng/mL (10 to 40,000 nM) for studies in mice and 2 to 1000 ng/mL (4 to 2000 nM) for studies in rats and dogs. In pharmacodynamic studies, concentrations of Compound (A) were determined using the LC/MS/MS assay with a standard curve range of 5 to 20,000 ng/mL (10 to 40,000 nM) in mouse plasma. The LC/MS/MS assay was also used to determine the concentrations of Compound (B), a degradation product of Compound (A) formed in the stock/dosing solution or in vivo, in rat and dog plasma. The structure of Compound (B) is: [drawing 9]
Compound (A) was given as a single intraarterial (2 mg/kg; 10 min infusion), oral (8 mg/kg), and intraduodenal (8 mg/kg) dose to fasted male Sprague Dawley rats (n×3-6 per group). All dosing solutions were prepared in 20% ethanol. Plasma samples were obtained over a period of 24 h after dosing and the concentration of Compound (A) was determined using the LC/MS/MS assay.

For orientation: Tmax means the time at which the peak concentration occurs. As for `C/C(=C\c1csc(C)n1)[C@@H]1C[C@@H]2O[C@]2(C)CCC[C@H](C)[C@H](O)[C@@H](C)C(=O)C(C)(C)[C@@H](O)CC(=O)N1` (relative stereo) [Compound (A), [1S-[1R*,3R*(E),7R*,10S*,11R*,12R*,16S*]]-7,11-dihydroxy 8,8,10,12,16-pentamethyl-3-[1-methyl-2-(2-methyl-4-thiazolyl)ethenyl-4-aza-17-oxobicyclo[14.1.0]heptadecane-5,9-dione], for the setting “intraarterial 2 mg/kg”, the “CLT (mean)” value is given as 56 mL/min/kg, the “VSS (mean)” value amounted to 23 L/kg and the “mean T-HALF” value was found to be 9.6 h. Further, under “intraarterial 2 mg/kg, liver blood flow 56 mL/min/kg”, the “CLT as percent of liver blood flow” value came out at 100%. Under “intraduodenal 8 mg/kg”, the Tmax stood at 4.8 min, the absolute oral bioavailability is reported as 27% and the “mean CMAX” value is reported as 642 ng/mL. Also, for the setting “oral 8 mg/kg”, the Tmax was determined as 10.2 min, the absolute oral bioavailability stood at 7.5% and the “mean CMAX” value was 228 ng/mL.
